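Cells were grown in 96-well plates and exposed to each compound for 48 hours at five concentrations; endpoints were interpolated linearly between bracketing concentrations, or set to the highest concentration if not reached. TGI denotes the concentration required for complete inhibition of growth.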
Key:
Test in all cases: NCI tumour cell line growth inhibition, 48 h
LXFL 529 NSCLC = system: LXFL 529 NSCLC
KM20L2 colon = system: KM20L2 colon
NCI-H23 lung = system: NCI-H23 lung
EKVX NSCLC = system: EKVX NSCLC
U251 CNS = system: U251 CNS
SK-MEL-5 melanoma = system: SK-MEL-5 melanoma
CAKI-1 renal = system: CAKI-1 renal
ACHN renal = system: ACHN renal
OVCAR-8 ovarian = system: OVCAR-8 ovarian
M14 melanoma = system: M14 melanoma
HCT-116 colon = system: HCT-116 colon
K-562 leukemia = system: K-562 leukemia
COLO 205 colon = system: COLO 205 colon
SNB-19 CNS = system: SNB-19 CNS
A549 NSCLC = system: A549 NSCLC
SW-620 colon = system: SW-620 colon
HL-60(TB) leukemia = system: HL-60(TB) leukemia
SF-539 CNS = system: SF-539 CNS
OVCAR-4 ovarian = system: OVCAR-4 ovarian
SNB-78 CNS = system: SNB-78 CNS
UO-31 renal = system: UO-31 renal
MALME-3M melanoma = system: MALME-3M melanoma
UACC-62 melanoma = system: UACC-62 melanoma
DLD-1 colon = system: DLD-1 colon
SN12C renal = system: SN12C renal
TK-10 renal = system: TK-10 renal
HOP-62 NSCLC = system: HOP-62 NSCLC
HOP-18 NSCLC = system: HOP-18 NSCLC
SF-268 CNS = system: SF-268 CNS
SK-MEL-28 melanoma = system: SK-MEL-28 melanoma
SK-MEL-2 melanoma = system: SK-MEL-2 melanoma
SNB-75 CNS = system: SNB-75 CNS
M19-MEL melanoma = system: M19-MEL melanoma
SF-295 CNS = system: SF-295 CNS
HCT-15 colon = system: HCT-15 colon
A498 renal = system: A498 renal
OVCAR-5 ovarian = system: OVCAR-5 ovarian
DMS 273 small cell lung = system: DMS 273 small cell lung
SK-OV-3 ovarian = system: SK-OV-3 ovarian
RXF 393 renal = system: RXF 393 renal
NCI-H460 lung = system: NCI-H460 lung
NCI-H226 lung = system: NCI-H226 lung
XF 498 CNS = system: XF 498 CNS
786-0 renal = system: 786-0 renal
IGROV1 ovarian = system: IGROV1 ovarian
LOX IMVI melanoma = system: LOX IMVI melanoma
HCC-2998 colon = system: HCC-2998 colon
UACC-257 melanoma = system: UACC-257 melanoma
RPMI-8226 leukemia = system: RPMI-8226 leukemia
MOLT-4 leukemia = system: MOLT-4 leukemia
CCRF-CEM leukemia = system: CCRF-CEM leukemia
KM12 colon = system: KM12 colon
NCI-H522 lung = system: NCI-H522 lung
HT29 colon = system: HT29 colon
DMS 114 small cell lung = system: DMS 114 small cell lung
OVCAR-3 ovarian = system: OVCAR-3 ovarian
SR leukemia = system: SR leukemia
HOP-92 NSCLC = system: HOP-92 NSCLC

COC(=O)/C=C(\C)CCC1SC1(C)C (centres undefined)
TGI (LXFL 529 NSCLC): > 100 µM | TGI (KM20L2 colon): > 100 µM | TGI (NCI-H23 lung): > 100 µM | TGI (EKVX NSCLC): > 100 µM | TGI (U251 CNS): > 100 µM | TGI (SK-MEL-5 melanoma): > 100 µM | TGI (CAKI-1 renal): > 100 µM | TGI (ACHN renal): > 100 µM | TGI (OVCAR-8 ovarian): > 100 µM | TGI (M14 melanoma): > 100 µM | TGI (HCT-116 colon): > 100 µM | TGI (K-562 leukemia): > 100 µM | TGI (COLO 205 colon): > 100 µM | TGI (SNB-19 CNS): > 100 µM | TGI (A549 NSCLC): > 100 µM | TGI (SW-620 colon): > 100 µM | TGI (HL-60(TB) leukemia): > 100 µM | TGI (SF-539 CNS): > 100 µM | TGI (OVCAR-4 ovarian): > 100 µM | TGI (SNB-78 CNS): > 100 µM | TGI (UO-31 renal): > 100 µM | TGI (MALME-3M melanoma): > 100 µM | TGI (UACC-62 melanoma): > 100 µM | TGI (DLD-1 colon): > 100 µM | TGI (SN12C renal): > 100 µM | TGI (TK-10 renal): > 100 µM | TGI (HOP-62 NSCLC): > 100 µM | TGI (HOP-18 NSCLC): > 100 µM | TGI (SF-268 CNS): > 100 µM | TGI (SK-MEL-28 melanoma): > 100 µM | TGI (SK-MEL-2 melanoma): > 100 µM | TGI (SNB-75 CNS): > 100 µM | TGI (M19-MEL melanoma): > 100 µM | TGI (SF-295 CNS): > 100 µM | TGI (HCT-15 colon): > 100 µM | TGI (A498 renal): > 100 µM | TGI (OVCAR-5 ovarian): > 100 µM | TGI (DMS 273 small cell lung): > 100 µM | TGI (SK-OV-3 ovarian): > 100 µM | TGI (RXF 393 renal): > 100 µM | TGI (NCI-H460 lung): > 100 µM | TGI (NCI-H226 lung): > 100 µM | TGI (XF 498 CNS): > 100 µM | TGI (786-0 renal): > 100 µM | TGI (IGROV1 ovarian): > 100 µM | TGI (LOX IMVI melanoma): > 100 µM | TGI (HCC-2998 colon): > 100 µM | TGI (UACC-257 melanoma): > 100 µM | TGI (RPMI-8226 leukemia): > 100 µM | TGI (MOLT-4 leukemia): > 100 µM | TGI (CCRF-CEM leukemia): > 100 µM | TGI (KM12 colon): > 100 µM | TGI (NCI-H522 lung): > 100 µM | TGI (HT29 colon): > 100 µM | TGI (DMS 114 small cell lung): > 100 µM

Cc1ccc2ccc(-c3ccccc3)c3c2c1C(=O)c1ccccc1C3=O
TGI (LXFL 529 NSCLC): > 100 µM | TGI (KM20L2 colon): > 100 µM | TGI (NCI-H23 lung): > 100 µM | TGI (EKVX NSCLC): > 100 µM | TGI (U251 CNS): > 100 µM | TGI (SK-MEL-5 melanoma): > 100 µM | TGI (OVCAR-3 ovarian): > 100 µM | TGI (ACHN renal): > 100 µM | TGI (OVCAR-8 ovarian): > 100 µM | TGI (M14 melanoma): > 100 µM | TGI (HCT-116 colon): > 100 µM | TGI (K-562 leukemia): > 100 µM | TGI (COLO 205 colon): > 100 µM | TGI (SNB-19 CNS): > 100 µM | TGI (A549 NSCLC): > 100 µM | TGI (SW-620 colon): > 100 µM | TGI (HL-60(TB) leukemia): > 100 µM | TGI (SF-539 CNS): > 100 µM | TGI (SNB-78 CNS): > 100 µM | TGI (UO-31 renal): > 100 µM | TGI (MALME-3M melanoma): > 100 µM | TGI (UACC-62 melanoma): > 100 µM | TGI (DLD-1 colon): > 100 µM | TGI (SN12C renal): > 100 µM | TGI (TK-10 renal): > 100 µM | TGI (HOP-62 NSCLC): > 100 µM | TGI (HOP-18 NSCLC): > 100 µM | TGI (SF-268 CNS): > 100 µM | TGI (SK-MEL-28 melanoma): > 100 µM | TGI (SK-MEL-2 melanoma): > 100 µM | TGI (SR leukemia): > 100 µM | TGI (SNB-75 CNS): 68.7 µM | TGI (M19-MEL melanoma): > 100 µM | TGI (SF-295 CNS): > 100 µM | TGI (A498 renal): > 100 µM | TGI (OVCAR-5 ovarian): > 100 µM | TGI (DMS 273 small cell lung): > 100 µM | TGI (SK-OV-3 ovarian): > 100 µM | TGI (RXF 393 renal): > 100 µM | TGI (NCI-H226 lung): > 100 µM | TGI (XF 498 CNS): 99.1 µM | TGI (786-0 renal): > 100 µM | TGI (IGROV1 ovarian): > 100 µM | TGI (LOX IMVI melanoma): > 100 µM | TGI (HCC-2998 colon): > 100 µM | TGI (UACC-257 melanoma): > 100 µM | TGI (RPMI-8226 leukemia): > 100 µM | TGI (MOLT-4 leukemia): > 100 µM | TGI (CCRF-CEM leukemia): > 100 µM | TGI (KM12 colon): > 100 µM | TGI (HOP-92 NSCLC): 74.4 µM | TGI (NCI-H522 lung): > 100 µM | TGI (HT29 colon): > 100 µM | TGI (DMS 114 small cell lung): > 100 µM

From PubChem BioAssay (NCI)
